{"source": "patent US20230391729A1", "about": "“SUCCINATE SALTS OF N-(3-(4-(3-(DIISOBUTYLAMINO)PROPYL)PIPERAZIN-1-YL)PROPYL)-1H-BENZO[D]IMIDAZOL-2-AMINE, PREPARATION THEREOF AND USE OF THE SAME” (ALZPROTECT, priority 2020, published 2023)", "key": {"[1]": {"experiment": "Gravimetric vapour sorption (GVS)", "format": "physicochemical", "experimental": "Approximately 10-20 mg of sample was placed into a mesh vapour sorption balance pan and loaded into an IGASorp Moisture Sorption Analyser balance by Hiden Analytical. The sample was subjected to a ramping profile from 40-90% relative humidity (RH) at 10% increments, maintaining the sample at each step until a stable weight had been achieved (98% step completion, minimum step length 30 minutes, maximum step length 60 minutes) at 25° C. After completion of the sorption cycle, the sample was dried using the same procedure to 0% RH, and finally taken back to the starting point of 40% RH. Two cycles were performed. The weight change during the sorption/desorption cycles were plotted, allowing for the hygroscopic nature of the sample to be determined."}, "[2]": {"test_system": "dopaminergic (TH positive) neurons", "experiment": "Survival and neurite network of TH(+) mesencephalic neurons after MPP+ injury", "format": "cell-based, rat", "conditions": "MPP+ 4 μM 48 h; 50 nM dose", "experimental": "Rat dopaminergic neurons were cultured as described by Visanji et al. in FASEB J. 2008, 22(7): 2488-2497 and Callizot et al., in Plos One 2019: https://doi.org/10.1371/journal.pone.0215277. Briefly, pregnant female rat (Wistar) of 15 days of gestation were killed using a deep anesthesia with CO2 chamber and a cervical dislocation. The midbrains obtained from 15-day-old rat embryos (Janvier, France) were dissected under a microscope. The embryonic midbrains were removed and placed in ice-cold medium of Leibovitz (L15) containing 2% of Penicillin-Streptomycin (PS) and 1% of BSA. The ventral portion of the mesencephalic flexure, a region of the developing brain rich in dopaminergic neurons, were used for the cell preparations. The midbrains were dissociated by trypsinization for 20 min at 37° C. (solution at a final concentration of 0.05% trypsin and 0.02% EDTA). The reaction was stopped by the addition of DMEM containing DNAase I grade II (0.5 mg/mL) and 10% of FCS. […] Viable cells were counted in a Neubauer cytometer using the trypan blue exclusion test. […]\nThe following read-outs were investigated: • neuron survival: total number of TH neurons (TH staining), • neurite network: total length of neurite network of TH positive neurons (in μm) • α-syn aggregation (area of overlapping between TH and α-syn staining in μm^2) […]"}}, "data": [{"substance": "N-(3-(4-(3-(diisobutylamino)propyl)piperazin-1-yl)propyl)-1H-benzo[d]imidazol-2-amine sesqui-succinate salt [sesqui-succinate salt Form 1]", "values": [{"measurement": "Post-GVS XRPD crystalline form", "setting": "[1]; after exposure to GVS humidity conditions", "value": "remain as the same crystalline form"}, {"measurement": "GVS weight uptake", "setting": "[1]; at 70% RH, 25° C.", "value": "ca. +0.1 wt. %"}, {"measurement": "GVS water uptake in equivalents", "setting": "[1]; up to 90% RH", "value": "approximately 7.1 equiv. water"}, {"measurement": "GVS weight increase", "setting": "[1]; up to 90% RH, 25° C.", "value": "ca. +18.9 wt. %"}, {"measurement": "hygroscopicity", "setting": "[1]; up to 90% relative humidity", "value": "not hygroscopic"}, {"measurement": "neurite network of TH positive neurons", "setting": "[2]", "value": "significantly improved"}, {"measurement": "neuron survival: total number of TH neurons", "setting": "[2]", "value": "neuroprotective"}]}]}
